Molecules are shown by their SMILES. Where two headings read alike, the source gives them in different places.

These results are taken from paper PMC9960827, “Cloning and Characterization of Trypanosoma congolense and T. vivax Nucleoside Transporters Reveal the Potential of P1-Type Carriers for the Discovery of Broad-Spectrum Nucleoside-Based Therapeutics against Animal African Trypanosomiasis” (International Journal of Molecular Sciences, 2023).

For data set [1], the system named is T. congolense IL3000. Put plainly: Alamar Blue (resazurin) assay, T. congolense IL3000. Type of data set: cell-based, Trypanosoma congolense. In outline: (§1)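 Reported figures represent means over a minimum of three separate-day experiments. In every experiment, EC50 is obtained by nonlinear fitting to a variable-slope sigmoid.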
In the next data set the test system is L. mexicana Cas9. Put plainly: Resazurin drug sensitivity assay, LmexCas9. The format is cell-based, Leishmania mexicana. As to conditions: read-out: LmexCas9 EC50. In outline:
as §1

Data set [2] concerns T. congolense 6C3. Set-up: method as in Hulpia et al. [38]. The following applies: values marked *; ref Hulpia et al. [38]; cited from earlier work.
A further data set concerns T. b. brucei. As to conditions: also CNS stage; oral and intraperitoneal administration; cited from earlier work.
Another data set concerns L. mexicana SUPKO+TvxNT3. Put plainly: microbe, parasite or virus in culture. Type of data set: cell-based, Leishmania mexicana. The following applies: read-out: SUPKO+TvxNT3 EC50. In a few lines: as §1
Another data set relates to L. mexicana SUPKO. Put plainly: microbe, parasite or virus in culture. Type of data set: cell-based, Leishmania mexicana. In a few lines: as §1
In another data set the test system is L. mexicana SUPKO+TcoAT1. Put plainly: microbe, parasite or virus in culture. The following applies: for EC50: read-out: SUPKO+TcoAT1 EC50. Type of data set: cell-based, Leishmania mexicana. In outline: as §1
In a further data set the test system is T. evansi. Set-up: method as in Hulpia et al. [38]. The following applies: compound marked *; ref Hulpia et al. [38]; cited from earlier work.
A further data set has as its system T. equiperdum. Set-up: method as in Hulpia et al. [38]. As to conditions: compound marked *; ref Hulpia et al. [38]; cited from earlier work.
Data set [3] has as its target T. congolense adenosine transporter. Put plainly: [3H]-adenosine uptake and its inhibition in T. congolense IL3000 bloodstream forms. Type of data set: cell-based, Trypanosoma congolense. As to conditions: for Ki: 0.05 µM [3H]-adenosine, 30 s, IC50 converted to Ki, read-out: Ki on the transport of [3H]-adenosine. In outline: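 Bloodstream-form T. congolense IL3000 (1 × 10^7 cells) in HEPES/bicarbonate buffer pH 7.3 took up [3H]-adenosine over a set interval, with or without inhibitor, ending by ice-cold unlabeled substrate stop or centrifugation through oil. Pellet radioactivity gave IC50 by sigmoid fit; Ki followed by Cheng–Prusoff using adenosine Km.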

The test system of data set [4] is T. congolense IL3000. Set-up: method as in Hulpia et al. [38]. The following applies: values marked *; ref Hulpia et al. [38]; cited from earlier work.
The next data set addresses TvxNT3 (Trypanosoma vivax, UniProt F9WV62). Put plainly: cell-based. Type of data set: cell-based. As to conditions: for δ(ΔG0): difference in ΔG0 relative to the parent purine (adenosine or inosine). In a few lines: (§2)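 Transporter genes were expressed in an L. mexicana line lacking NT1 and NT2 (SUPKO), and 1 × 10^7 cells in HEPES/bicarbonate buffer pH 7.3 took up radiolabeled permeant through an oil layer, with or without inhibitor. Uptake was stopped with ice-cold unlabeled substrate or by centrifugation, and pellets were counted. IC50 against radiolabeled adenosine was converted to Ki by Cheng–Prusoff using the permeant Km.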

The test system of data set [5] is human embryonic kidney (HEK) cells. Put plainly: Resazurin toxicity assay on human embryonic kidney cells. The format is cell-based. In a few lines:
as §1

Another data set has as its target TcoAT1. The format is cell-based, Trypanosoma congolense. The following applies: for Ki: 0.05 µM [3H]-adenosine, 10 s, IC50 converted to Ki, read-out: Ki on the transport of [3H]-adenosine; for ΔG0: Gibbs free energy of binding, from Km or Ki; for δ(ΔG0): loss of Gibbs free energy of binding relative to the parent nucleoside. In outline: as §2
Data set [6] relates to T. vivax. Set-up: method as in Mabille et al. [69]. The following applies: added for comparison only; ref Mabille et al. [69]; cited from earlier work.
In data set [7] the test system is T.b.b. B48. Set-up: method as in Hulpia et al. [38]. As to conditions: compound marked *; ref Hulpia et al. [38]; cited from earlier work.
Data set [8] relates to T. vivax. Put plainly: T. vivax EC50 (from Mabille et al.). Type of data set: cell-based, Trypanosoma vivax. As to conditions: from Table 8 data.
Data set [9] has as its system T. congolense 6C3. Put plainly: microbe, parasite or virus in culture. Type of data set: cell-based, Trypanosoma congolense. In a few lines: as §1
Data set [10] has as its system T.b.b. B48. Put plainly: Alamar Blue (resazurin) assay, T. b. brucei B48. The format is cell-based, Trypanosoma brucei brucei. In outline: as §1
In a further data set the test system is T. brucei wild type. The following applies: cited from earlier work.
The subject of another data set is T. brucei TbAT1-KO. The following applies: cited from earlier work.
The target of data set [11] is T. b. brucei P1 (TbP1/NT2). As to conditions: cited from earlier work.
In data set [12] the test system is T. congolense IL3000-based cell line expressing TbAT1. Put plainly: Resazurin drug sensitivity assay, T. congolense IL3000 expressing TbAT1. As to conditions: three independent clones, p < 0.0001. Set-up: species or system Trypanosoma congolense. The procedure:
EC50 values were determined by plotting to an equation for a sigmoid curve with variable slope (GraphPad Prism 8). All values were the average of at least three independent determinations on different days.

For another data set, the system named is T. brucei cells. Set-up: method as in PMID 30475806. As to conditions: T. brucei cells treated with the drug; cited from earlier work.

Sequence of TvxNT3 (F9WV62 entry or part of it): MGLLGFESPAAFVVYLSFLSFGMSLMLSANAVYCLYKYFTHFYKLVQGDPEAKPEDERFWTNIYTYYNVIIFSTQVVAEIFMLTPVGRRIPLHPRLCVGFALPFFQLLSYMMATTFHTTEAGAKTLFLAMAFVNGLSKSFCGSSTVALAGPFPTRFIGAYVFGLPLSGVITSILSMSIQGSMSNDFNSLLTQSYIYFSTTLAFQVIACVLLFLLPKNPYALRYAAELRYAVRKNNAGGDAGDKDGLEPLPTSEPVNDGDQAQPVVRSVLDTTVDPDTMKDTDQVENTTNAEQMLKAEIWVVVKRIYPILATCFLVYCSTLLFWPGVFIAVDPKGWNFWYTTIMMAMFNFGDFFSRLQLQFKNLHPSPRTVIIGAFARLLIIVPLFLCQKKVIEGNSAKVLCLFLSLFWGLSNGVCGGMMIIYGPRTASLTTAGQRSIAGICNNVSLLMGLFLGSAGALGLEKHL

Regarding `Nc1ncnc2c1ccn2C1OC(CO)CC1O` (stereo not shown) [FH7429_d, 3′-deoxytubercidin], the figures for the “fold more potent than tubercidin” value with T. congolense IL3000 [1] (against T. congolense) and with T.b.b. B48 [10] (against T. b. brucei B48) were 150 fold and 17.2 fold, respectively. Further, the half-maximal effective concentration (EC50) is 15.1 ± 1.7 µM in the data set on L. mexicana Cas9 (resazurin, promastigotes); 0.019 ± 0.002 µM in the data set with T. congolense 6C3 [2]; above 100 µM with L. mexicana SUPKO+TvxNT3 (resazurin, promastigotes); above 100 µM in the data set on L. mexicana SUPKO (resazurin, promastigotes, read-out: SUPKO EC50); 65.3 ± 7.6 µM in the data set with L. mexicana SUPKO+TcoAT1 (resazurin, promastigotes); 0.017 ± 0.002 µM in the data set on T. evansi. Besides, the EC50 is 0.0026 ± 0.0006 µM with T. equiperdum; 0.021 ± 0.001 µM in the data set on T. congolense IL3000 [4]; above 200 µM in [5] (resazurin, 96 well plates, read-out: HEK EC50); 3.48 ± 0.09 µM with T. vivax [6]; 0.25 ± 0.02 µM in the data set with T.b.b. B48 [7]. Also, the “outcome in T. b. brucei mouse model” value with T. b. brucei is reported as “curative”. Besides, the “SUPKO RF (Cas9)” value in the data set with L. mexicana SUPKO (Resistance Factor = EC50(SUPKO)/EC50(Cas9)) is on record as above 6.63. Besides, the “SUPKO+TcoAT1 RF (SUPKO)” value with L. mexicana SUPKO+TcoAT1 (Resistance Factor relative to SUPKO) was above 1.53. For the same molecule, the Ki was determined as 319 ± 93 µM in data set [3]; 388 ± 13 µM at TvxNT3 (50 nM [3H]-adenosine, 90 s, IC50 converted to Ki, read-out: Ki on the transport of [3H]-adenosine); 810 ± 60 µM at TcoAT1. Also, the “ΔG0, Gibbs free energy of interaction” value in data set [3] (calculated from Km or Ki) is -4.76 kcal/mol. For the same molecule, the ΔG0 on TvxNT3 (Gibbs free energy of interaction, from Km or Ki) was -4.66 kcal/mol; with TcoAT1, -4.3 kcal/mol. The “SI T. equiperdum” value in data set [5] (selectivity index = EC50 (HEK cells)/EC50 (T. equiperdum)) is on record as >76,000. Further, in [5] (selectivity index = EC50 (HEK cells)/EC50 (T. evansi)), the “SI T. evansi” value is >11,800. Further, the “fold higher EC50 against T. vivax compared to T. congolense” value in the data set on T. vivax [8] is on record as 10–165 fold. Besides, the “T. congolense 6C3 RF” value with T. congolense 6C3 [9] (resistance factor = EC50 (test strain)/EC50(control strain)) is listed as 0.91.
For `Nc1ncnc2c1ccn2[C@@H]1O[C@H](CO)[C@@H](O)[C@H]1O` [Tubercidin, 7-deazaadenosine], the EC50 in the data set with T. congolense IL3000 [1] (Trypanosoma congolense, read-out: T. congolense IL3000 EC50) was 3.16 ± 0.5 µM; in the data set on L. mexicana Cas9 (Leishmania mexicana), 0.44 ± 0.06 µM; in the data set with T. brucei wild type, 0.15 ± 0.03 µM; in the data set with L. mexicana SUPKO+TvxNT3 (Leishmania mexicana) it was above 100 µM; with L. mexicana SUPKO (Leishmania mexicana, read-out: SUPKO EC50, resazurin, promastigotes), above 100 µM; with L. mexicana SUPKO+TcoAT1 (Leishmania mexicana), above 100 µM. In addition, the EC50 is 4.3 ± 1.3 µM with T. brucei TbAT1-KO; 1.83 ± 0.39 µM in the data set with T. congolense 6C3 [9] (Trypanosoma congolense, diminazene resistant strain, resazurin, read-out: T. congolense 6C3 EC50); 4.3 ± 1.3 µM in the data set with T.b.b. B48 [10] (Trypanosoma brucei, read-out: T.b.b. B48 EC50). Further, the Ki was 403 ± 120 µM in data set [3]; 78 ± 6.4 µM in [11] (T. b. brucei bloodstream forms, read-out: Tbb P1 Ki); 754 ± 54.3 µM on TcoAT1. Also, the “Tbb P1 ΔG0” value in data set [11] is -5.59 kcal/mol. The “δ(ΔG0)” value on TvxNT3 was -3.148 kcal/mol; at TvxNT3 (listed as tubercidin), 3.15 kcal/mol; in the data set on TcoAT1, 4.441 kcal/mol; in the data set with TcoAT1 (listed as tubercidin), 4.45 kcal/mol. The ΔG0 with TcoAT1 was -4.25 kcal/mol. The “effect of TbAT1 expression on sensitivity” value in data set [12] was “highly significant sensitization”.
Turning to `Nc1nc(N)nc(Nc2ccc([As]3SCC(CO)S3)cc2)n1` (stereo not shown) [melarsoprol], in the data set on T. brucei cells, the “cells bearing conjoined nuclei and double kinetoplasts” value is above 10%.
